Test results reported in US9394295B2, “Antibacterial homopiperidinyl substituted 3,4-dihydro-1H-[1,8]naphthyridinones” (Janssen Sciences Ireland UC, priority 2011, dated 2016).
Values after ≈ are worked out from the molar mass of the structure shown. Like-named read-outs stand apart in the source and are kept apart here.

Experiments:
[1] = Cytotoxicity MTT assay (TOX HELAM); type: cell-based; settings: human, HelaM cells, read-out: TOX HELAM (222.125) CC50
Protocol: Cytotoxicity of the compounds was evaluated using the MTT assay. Human HelaM cells grown in 96-well plates were exposed to serial dilutions of the tested compounds (final volume of 0.2 ml) and incubated for 72 hours at 37° C. and 5% CO2. Inhibitors are typically varied over the range of 25 to 0.8 μM. The final DMSO concentration in the assay is 0.5%. MTT (3-(4,5-Dimethylthiazol-2-yl)-2,5-diphenyltetrazolium bromide, a tetrazole) was added and reduced to purple formazan only in living cells. Solubilization of the formazan crystals was achieved by adding 100 μl 2-propanol. Cell viability was determined by measuring the absorbance of the reduced formazan, giving a purple color, at 540 nm and 690 nm. The absorbance measured at 690 nm was automatically subtracted from the absorbance at 540 nm, to eliminate the effects of non-specific absorption. The percent cytotoxicity achieved by the compounds was calculated according to standard methods. Cytotoxicity is reported as CC50, the concentration that causes a 50% reduction in cell viability.
The results are depicted in the table D2 below (TOX HELAM).

[2] = In vivo pharmacokinetic and oral bioavailability; settings: male Swiss mice; for AUC(0-inf) / C0 / half-life / clearance / bioavailability / Tmax / Cmax: mouse, plasma; for C0 / Cmax: 20% HP-β-CD solution; for half-life: read-out: Half life (t1/2) (converted); for clearance: read-out: Plasma clearance Cl (converted); for bioavailability: p.o. 10 mg/kg vs i.v. 2.5 mg/kg
Protocol: The in vivo pharmacokinetics and oral bioavailability of the compound of the examples was/is investigated in male Swiss mice (fed) following single intravenous (i.v.) bolus and oral (p.o.) administration. For the i.v. and p.o. solution formulations, the compound was/is dissolved in a 20% HP-β-CD solution. The pH of the formulations was/is around pH 4. All i.v. formulations were isotonic.

[3] = system: S. aureus; assay: Antibacterial susceptibility testing: IC90 determination with 10% human serum (STA + 10% HS); type: cell-based; settings: Staphylococcus aureus; S. aureus with human serum at final concentration of 10%; read-out: STA + 10% HS (361.169) IC90
Protocol: (§1) The following bacteria were used: Staphylococcus aureus ATCC 29213, methicillin-resistant Staphylococcus aureus (MRSA) ATCC 700788 and Escherichia coli ATCC 35218. The bacteria used in this study were grown overnight in flasks containing 100 ml Mueller-Hinton broth (Difco cat. nr. 0757-17) in sterile de-ionized water, with shaking, at 37° C. Stocks were store at −70° C. until use.
(§2) Bacteria were incubated on a tryptic soy agar plate containing 5% sheep blood (Becton Dickinson cat. nr. 254053) for 18-24 hours at 35° C. in aerobic conditions (first passage). For the second passage, fresh Mueller-Hinton broth is inoculated with 5-10 colonies and grown overnight at 35° C. until turbidity (reaching log-phase) in aerobic conditions is reached. The bacterial suspension is then adjusted to 0.5 McFarland density and further diluted 1:100 in Mueller Hinton broth medium. This is used as inoculum.
(§3) MIC assays were performed by the broth microdilution method in a 96-well format (flat-bottom microtitre plates) with a final volume of 0.1 ml Mueller Hinton broth containing two-fold serial dilutions of compounds and inoculated with 5×10^5 CFU/ml of bacteria (standard inoculum size according to CLSI guidelines). Inhibitors are typically varied over the range of 63 to 0.49 μM. The final DMSO concentration in the assay was 1.25% (maximum tolerable DMSO concentration=6%). In the assays where the effect of human serum on the activity of the compounds against S. aureus was tested, human serum was added at a final concentration of 10%. The plates were incubated at 35° C. for 16-20 hours. At the end of incubation the bacterial growth was quantified fluorometrically. For this, resazurin was added to all wells and the plates were re-incubated. The incubation time is dependent on the type of bacteria. A change in color from blue to pink indicated the growth of bacteria. The fluorescence was read in computer-controlled fluorometer (Fluoroskan Ascent FL, Labsystems) at an excitation wavelength 540 nm and an emission wavelength of 590 nm. The % growth inhibition achieved by the compounds was calculated according to standard methods. The IC90 (expressed in μg/ml) was defined as the 90% inhibitory concentration for bacterial growth. A panel of reference compounds were simultaneously tested for QC approval.
The results are depicted in the table D2 below (STA+10% HS).

[4] = target: T1, S. aureus ATCC 29213 FabI (Staphylococcus aureus, UniProt Q6GI75); assay: Staphylococcus aureus FabI enzyme inhibition assay; type: biochemical; settings: 30 minutes at room temperature, NADH consumption
T1 sequence (Q6GI75 1-256): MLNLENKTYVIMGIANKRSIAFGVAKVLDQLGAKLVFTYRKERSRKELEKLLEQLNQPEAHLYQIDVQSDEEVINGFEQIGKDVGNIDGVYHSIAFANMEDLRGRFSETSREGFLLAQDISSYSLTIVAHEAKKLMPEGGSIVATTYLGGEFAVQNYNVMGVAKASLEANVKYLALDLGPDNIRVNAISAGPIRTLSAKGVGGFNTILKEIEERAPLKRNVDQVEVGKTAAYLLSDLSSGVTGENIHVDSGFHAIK
Protocol: FabI enzyme inhibition assays were carried out in half-area, 384-well microtitre plates. Compounds were evaluated in 40-μl assay mixtures containing 100 mM NaADA, pH 6.5 (ADA=N-[2-acetamido]-2iminodiacetic acid), 250 μM crotonoyl-CoA, 625 μM NADH and 50 μg/ml S. aureus ATCC 29213 FabI Inhibitors were typically varied over the range of 50 to 0.39 μM. The reaction mixtures were incubated for 30 minutes at room temperature and the reaction was stopped by adding 200 mM Tris buffer (pH 9.0) to create a pH-shift. The consumption of NADH was monitored by measuring the change in absorbance at […]. By comparing sample readings to those of negative (absence of compound) and positive (absence of enzyme) controls, the percent inhibition of enzymatic activity of the compounds was determined. A best-fit curve is fitted by a minimum of squares method. From this an IC50-value (expressed in μg/ml), resulting in 50% inhibition of enzymatic activity, was obtained.

[5] = system: Staphylococcus aureus ATCC 29213; assay: Antibacterial susceptibility testing: IC90 determination (STA); type: cell-based; settings: ATCC29213, S. aureus ATCC 29213, 90% inhibitory concentration for bacterial growth, read-out: STA (361.159) IC90
Protocol: as §1, §2, §3

[6] = system: S. aureus ATCC 29213; assay: MIC broth microdilution (CLSI), S. aureus ATCC 29213; type: cell-based; settings: Staphylococcus aureus, ATCC 29213 / MSSA, reference strain MSSA
Protocol: (§4) Minimum Inhibitory Concentrations (MICs) were determined in accordance with the Clinical and Laboratory Standards Institute (CLSI) methodology against aerobic bacteria (CLSI M07-A8) (see Clinical and Laboratory Standards Institute. 2009. Methods for dilution antimicrobial susceptibility tests for bacteria that grow aerobically. CLSI document M07-A8, Vol. 29, No. 2.) by the broth microdilution method with cation-adjusted Mueller-Hinton broth (CA-MHB) medium for the majority of organisms, except for Haemophilus influenza, where Haemophilis test medium (HTM) broth was used. Descriptions of the individual organisms can be found in the table. Where possible, ATCC standard strains were tested.
(§5) The inoculum density for the susceptibility testing was standardized to give a final inoculum of approximately 5×10^5 CFU/mL.
(§6) Stock solutions of the compounds were prepared in DMSO at concentrations of 1 mg/mL. Linezolid was prepared in DMSO at a concentration of 2 mg/mL. Stock solutions of all compounds were diluted into CA-MHB to give a range of two-fold dilutions, depending upon the sensitivity of the organism being tested.

[7] = system: E. coli tolC mutant; assay: MIC broth microdilution (CLSI), E. coli tolC mutant; type: cell-based; settings: Escherichia coli
Protocol: as §4, §5, §6

[8] = system: E. coli ATCC 25922; assay: MIC broth microdilution (CLSI), E. coli ATCC 25922; type: cell-based; settings: Escherichia coli, ATCC25922
Protocol: as §4, §5, §6

[9] = system: S. aureus ATCC 43300; assay: MIC broth microdilution (CLSI), S. aureus ATCC 43300; type: cell-based; settings: Staphylococcus aureus, ATCC 43300 / MRSA, reference strain MRSA
Protocol: as §4, §5, §6

[10] = system: H. influenza ATCC 49247; assay: MIC broth microdilution (CLSI), H. influenza ATCC 49247; type: cell-based; settings: Haemophilus influenzae, ATCC49247, HTM broth
Protocol: as §4, §5, §6

Row | SMILES | CC50 at 72 h [1] [µg/mL] | IC90 [3] [µg/mL] | IC50 [4] [µM] | IC90 [5] [µg/mL] | further results
1 | COc1ccccc1C1=CCCN(C(=O)/C=C/c2cnc3c(c2)CCC(=O)N3)CC1 [Co. No. 10] | > 10.1 | 0.2 | 0.867 | 0.09 (≈ 0.223 µM) | Vdz ([2]; i.v. 2.5 mg/kg): 2.0 L/kg; AUC(0-inf) ([2]; iv, i.v. 2.5 mg/kg): 2160 ng·h/mL; C0 ([2]; iv, i.v. 2.5 mg/kg): 3400 ng/mL; half-life ([2]; iv, i.v. 2.5 mg/kg): 1.2 h; clearance ([2]; iv, i.v. 2.5 mg/kg): 20 mL/min/kg; bioavailability ([2]; po): 78%; AUC(0-inf) ([2]; po, p.o. 10 mg/kg): 7090 ng·h/mL; Tmax ([2]; po, p.o. 10 mg/kg): 0.5 h; Cmax ([2]; po, p.o. 10 mg/kg): 3740 ng/mL; half-life ([2]; po, p.o. 10 mg/kg): 2 h
2 | O=C1CCc2cc(/C=C/C(=O)N3CCCN(c4ccccc4)CC3)cnc2N1 [Co. No. 11] | > 9.46 | 5.76 | 1.04 | 3.24 (≈ 8.61 µM) | melting point: 156 °C
3 | Cc1ccc(F)cc1C1=CCN(C(=O)/C=C/c2cnc3c(c2)CCC(=O)N3)CCC1 [Co. No. 14] | 9.73 (≈ 24 µM) | 3.74 | 0.863 | 1.54 (≈ 3.8 µM) | Vdz ([2]; i.v. 2.5 mg/kg): 1.0 L/kg; AUC(0-inf) ([2]; iv, i.v. 2.5 mg/kg): 6700 ng·h/mL; C0 ([2]; iv, i.v. 2.5 mg/kg): 4550 ng/mL; half-life ([2]; iv, i.v. 2.5 mg/kg): 2 h; clearance ([2]; iv, i.v. 2.5 mg/kg): 6 mL/min/kg; bioavailability ([2]; po): 90%; AUC(0-inf) ([2]; po, p.o. 10 mg/kg): 23800 ng·h/mL; Tmax ([2]; po, p.o. 10 mg/kg): 1 h; Cmax ([2]; po, p.o. 10 mg/kg): 3930 ng/mL; half-life ([2]; po, p.o. 10 mg/kg): 2.8 h
4 | O=C1CCc2cc(/C=C/C(=O)N3CCC=C(c4cccc(Cl)c4)CC3)cnc2N1 [Co. No. 19] | > 20.4 | 1.38 | 1.05 | 0.35 (≈ 0.858 µM) | MIC90 [6]: 0.125 µg/mL (≈ 0.306 µM); MIC90 [7]: 1 µg/mL (≈ 2.45 µM); MIC90 [8]: > 8 µg/mL; MIC90 [9]: 0.25 µg/mL (≈ 0.613 µM); MIC90 [10]: > 8 µg/mL
5 | COc1ccc(C2=CCCN(C(=O)/C=C/c3cnc4c(c3)CCC(=O)N4)CC2)cc1 [Co. No. 26] | > 10.1 | 2.86 | 1.66 | 1.46 (≈ 3.62 µM) | 
6 | CC1(c2ccccc2)CCCN(C(=O)/C=C/c2cnc3c(c2)CCC(=O)N3)CC1 (centres unmarked) [Co. No. 28] | > 9.78 | 7.42 | ~1.67 | 2.4 (≈ 6.16 µM) | 
7 | COc1cccc(C2=CCCN(C(=O)/C=C/c3cnc4c(c3)CCC(=O)N4)CC2)c1 [Co. No. 29] | > 10.6 | 1.66 | 2.4 | 0.78 (≈ 1.93 µM) | 
8 | COc1cccc(F)c1C1=CCCN(C(=O)/C=C/c2cnc3c(c2)CCC(=O)N3)CC1 [Co. No. 31] | > 10.6 | 0.26 | 1.61 | 0.21 (≈ 0.498 µM) | 
9 | O=C1CCc2cc(/C=C/C(=O)N3CCc4ccccc4CC3)cnc2N1 [Co. No. 32] | > 8.73 | 20.2 | 1.53 | 21.4 (≈ 61.7 µM) | 
